The target in test [1] is T1, human NK-3 receptor (Homo sapiens (Human), UniProt P29371). Put plainly: Aequorin functional assay with human NK-3 receptor (antagonist testing vs NKA). The format is cell-based. The following applies: inhibition of NKA (3 nM, EC80) response, CHO cells expressing human NK3 receptor and apoaequorin.
For test [2], the target named is T1, human NK-3 receptor. Put plainly: 3H-SB222200 binding competition assay with human NK-3 receptor.
Description: ^3H-SB222200 Binding Competition Assay with Human NK-3 Receptor
The membranes were incubated with 5 nM ^3H-SB222200(ARC) in a HEPES 25 mM/NaCl 0.1M/CaCl2 1 mM/MgCl2 5 Mm/BSA 0.5%/Saponin 10 μg/ml buffer at pH 7.4 and various concentrations of compounds of the invention. The amount of ^3H-SB222200 bound to the receptor was determined after filtration by the quantification of membrane associated radioactivity using the TopCount-NXT reader (Packard).
The target of the next test is hERG channel (Homo sapiens (Human), UniProt Q12809). The experiment in a line: hERG inhibition assay (manual patch-clamp, HEK 293 cells). A general note: Block of hERG is tested as a sign of cardiac risk.
The next test has as its target human NK1 receptor (Homo sapiens (Human), UniProt P25103). The experiment in a line: Human NK1 [3H] substance P binding assay (selectivity).
Another test deals with human NK2 receptor (Homo sapiens (Human), UniProt P21452). The experiment in a line: Human NK2 [125I]-Neurokinin A binding assay (selectivity).
The mark [3] stands for this setting: Table 6, membranes of CHO cells expressing human NK3 receptor, 5 nM 3H-SB222200, read-out: Ki.
The mark [4] stands for this setting: Table 7, human NK-3 receptor, read-out: NK3 Ki.
[5] abbreviates: read-out: NK1 Ki, for the racemate, value measured for the racemate of the numbered compound.
Setting [6] is: read-out: NK2 Ki, for the racemate, value measured for the racemate of the numbered compound.

Like-named read-outs stand apart in the source and are kept apart here. Bounds are passed on as bounds.

Chain of human NK1 receptor (P25103 whole entry): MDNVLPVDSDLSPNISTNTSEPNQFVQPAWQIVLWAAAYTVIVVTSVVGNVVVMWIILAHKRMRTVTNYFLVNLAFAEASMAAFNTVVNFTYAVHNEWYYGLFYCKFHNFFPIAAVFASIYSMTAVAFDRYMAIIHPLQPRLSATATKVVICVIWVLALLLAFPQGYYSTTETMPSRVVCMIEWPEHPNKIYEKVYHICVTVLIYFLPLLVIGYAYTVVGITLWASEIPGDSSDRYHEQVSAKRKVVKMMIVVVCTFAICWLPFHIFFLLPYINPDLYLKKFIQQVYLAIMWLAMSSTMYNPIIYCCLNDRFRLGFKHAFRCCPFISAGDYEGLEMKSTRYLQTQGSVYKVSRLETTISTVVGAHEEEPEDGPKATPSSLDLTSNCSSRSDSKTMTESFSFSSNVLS
T1 sequence (P29371 whole entry): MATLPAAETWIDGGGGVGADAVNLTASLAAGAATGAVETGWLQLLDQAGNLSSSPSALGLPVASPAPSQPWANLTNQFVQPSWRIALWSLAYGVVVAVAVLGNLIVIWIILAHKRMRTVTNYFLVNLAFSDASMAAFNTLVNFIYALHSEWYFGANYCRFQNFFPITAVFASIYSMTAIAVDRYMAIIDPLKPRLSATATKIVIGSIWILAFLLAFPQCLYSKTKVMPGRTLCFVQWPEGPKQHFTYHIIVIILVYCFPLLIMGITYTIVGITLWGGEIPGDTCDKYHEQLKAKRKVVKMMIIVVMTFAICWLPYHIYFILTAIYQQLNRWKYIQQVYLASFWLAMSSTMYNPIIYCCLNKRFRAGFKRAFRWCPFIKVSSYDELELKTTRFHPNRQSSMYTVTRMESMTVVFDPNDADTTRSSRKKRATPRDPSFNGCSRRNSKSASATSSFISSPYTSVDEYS
Chain of human NK2 receptor (P21452 whole entry): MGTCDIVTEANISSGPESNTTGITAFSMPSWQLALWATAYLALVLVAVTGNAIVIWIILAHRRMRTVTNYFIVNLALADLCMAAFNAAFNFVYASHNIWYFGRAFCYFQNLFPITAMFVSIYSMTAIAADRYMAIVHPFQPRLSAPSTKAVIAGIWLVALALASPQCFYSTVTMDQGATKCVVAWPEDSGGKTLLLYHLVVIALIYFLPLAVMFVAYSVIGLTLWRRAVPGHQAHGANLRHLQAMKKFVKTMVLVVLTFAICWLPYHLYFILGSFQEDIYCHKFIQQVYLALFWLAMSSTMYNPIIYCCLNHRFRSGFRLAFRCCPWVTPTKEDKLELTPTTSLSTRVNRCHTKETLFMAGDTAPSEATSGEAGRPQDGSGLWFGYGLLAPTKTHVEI
Chain of hERG channel (Q12809 whole entry): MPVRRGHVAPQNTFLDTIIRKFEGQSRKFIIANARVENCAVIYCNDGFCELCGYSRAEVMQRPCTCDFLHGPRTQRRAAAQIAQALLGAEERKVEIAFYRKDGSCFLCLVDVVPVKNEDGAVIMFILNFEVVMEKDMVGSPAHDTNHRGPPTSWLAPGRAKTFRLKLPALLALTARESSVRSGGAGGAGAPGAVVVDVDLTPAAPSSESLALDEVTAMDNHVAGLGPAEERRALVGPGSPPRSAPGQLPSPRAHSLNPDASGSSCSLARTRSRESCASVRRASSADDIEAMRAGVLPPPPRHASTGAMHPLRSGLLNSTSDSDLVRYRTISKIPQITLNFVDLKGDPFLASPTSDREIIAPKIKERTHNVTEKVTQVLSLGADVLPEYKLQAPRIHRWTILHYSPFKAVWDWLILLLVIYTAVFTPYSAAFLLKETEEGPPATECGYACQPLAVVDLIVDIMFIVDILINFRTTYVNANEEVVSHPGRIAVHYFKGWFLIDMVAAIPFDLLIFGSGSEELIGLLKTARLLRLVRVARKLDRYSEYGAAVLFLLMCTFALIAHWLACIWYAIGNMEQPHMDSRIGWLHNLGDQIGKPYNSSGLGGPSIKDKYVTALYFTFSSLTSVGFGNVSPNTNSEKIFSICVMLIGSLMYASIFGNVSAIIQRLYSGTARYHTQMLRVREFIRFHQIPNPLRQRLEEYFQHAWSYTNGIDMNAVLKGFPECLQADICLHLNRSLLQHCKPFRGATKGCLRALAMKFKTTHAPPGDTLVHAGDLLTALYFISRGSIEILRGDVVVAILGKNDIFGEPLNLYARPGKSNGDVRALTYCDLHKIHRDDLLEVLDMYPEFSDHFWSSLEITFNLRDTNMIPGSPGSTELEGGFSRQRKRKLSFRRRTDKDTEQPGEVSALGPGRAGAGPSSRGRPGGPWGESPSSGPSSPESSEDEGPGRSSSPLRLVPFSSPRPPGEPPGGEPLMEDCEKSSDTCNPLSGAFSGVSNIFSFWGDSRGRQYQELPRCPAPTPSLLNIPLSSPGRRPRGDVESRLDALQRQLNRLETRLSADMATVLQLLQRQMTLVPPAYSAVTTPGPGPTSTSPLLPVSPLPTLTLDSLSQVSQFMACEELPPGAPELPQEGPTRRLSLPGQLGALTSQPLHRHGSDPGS

`Cc1nc(-c2nnc3n2CCN(C(=O)c2ccc(-c4ccccc4)cc2)[C@@H]3C)cs1` [Compound 2, (R)-[1,1′-biphenyl]-4-yl(8-methyl-3-(2-methylthiazol-4-yl)-5,6-dihydro-[1,2,4]triazolo[4,3-a]pyrazin-7(8H)-yl)methanone]: the half-inhibitory concentration (IC50) (usually the point on the concentration scale where inhibition reaches its midpoint) against human NK-3 receptor [1] is 28 nM. Besides, at human NK-3 receptor [2] (setting [3]), the Ki (as a rule, a dissociation constant, usually derived from enzyme kinetics or from competition with a known ligand) is 26 nM.

As for `O=C(c1ccc(-c2cccs2)cc1)N1CCn2c(nnc2-c2csc(C(F)(F)F)n2)C1` [Compound 4, (4-(thiophen-2-yl)phenyl)(3-(2-(trifluoromethyl)thiazol-4-yl)-5,6-dihydro-[1,2,4]triazolo[4,3-a]pyrazin-7(8H)-yl)methanone], the IC50 was 50 nM at human NK-3 receptor [1] and over 30000 nM against hERG channel. For the same compound, the Ki at human NK-3 receptor [2] (setting [3]) came out at 56 nM.

The compound `CCc1nc(-c2nnc3n2CCN(C(=O)c2ccc(-c4cccs4)cc2)[C@@H]3C)cs1` [Compound 5, (R)-(3-(2-ethylthiazol-4-yl)-8-methyl-5,6-dihydro-[1,2,4]triazolo[4,3-a]pyrazin-7(8H)-yl)(4-(thiophen-2-yl)phenyl)methanone] gave an IC50 against human NK-3 receptor [1] of 3 nM. Besides, the Ki at human NK-3 receptor [2] (setting [3]) worked out at 5 nM.

`CCc1nc(-c2nnc3n2CCN(C(=O)c2ccc(-c4ccccc4)cc2)[C@@H]3C)cs1` [Compound 6, (R)-[1,1′-biphenyl]-4-yl(3-(2-ethylthiazol-4-yl)-8-methyl-5,6-dihydro-[1,2,4]triazolo[4,3-a]pyrazin-7(8H)-yl)methanone]: the IC50 against human NK-3 receptor [1] stood at 10 nM. Moreover, the inhibition constant Ki on human NK-3 receptor [2] (setting [3]) was 11 nM.

With `C=Cc1nc(-c2nnc3n2CCN(C(=O)c2ccc(-c4cccs4)cc2)[C@@H]3C)cs1` [Compound 7, (R)-(8-methyl-3-(2-vinylthiazol-4-yl)-5,6-dihydro-[1,2,4]triazolo[4,3-a]pyrazin-7(8H)-yl)(4-(thiophen-2-yl)phenyl)methanone], 3 nM corresponded to half-maximal inhibition against human NK-3 receptor [1] (IC50). Moreover, the Ki on human NK-3 receptor [2] (setting [3]) was 4 nM.

In turn, `C=Cc1nc(-c2nnc3n2CCN(C(=O)c2ccc(-c4ccccc4)cc2)[C@@H]3C)cs1` [Compound 8, (R)-[1,1′-biphenyl]-4-yl(8-methyl-3-(2-vinylthiazol-4-yl)-5,6-dihydro-[1,2,4]triazolo[4,3-a]pyrazin-7(8H)-yl)methanone] showed an IC50 at human NK-3 receptor [1] of 7 nM. Also, at human NK-3 receptor [2] (setting [3]), the Ki was found to be 7 nM.

On human NK-3 receptor [1], `C=Cc1nc(-c2nnc3n2CCN(C(=O)c2ccc(-c4cccs4)cc2)C3)cs1` [Compound 9, (4-(thiophen-2-yl)phenyl)(3-(2-vinylthiazol-4-yl)-5,6-dihydro-[1,2,4]triazolo[4,3-a]pyrazin-7(8H)-yl)methanone] yielded an IC50 of 18 nM. Besides, the inhibition constant Ki at human NK-3 receptor [2] (setting [3]) amounted to 19 nM.

For `C=Cc1nc(-c2nnc3n2CCN(C(=O)c2ccc(-c4ccccc4)cc2)C3)cs1` [Compound 10, [1,1′-biphenyl]-4-yl(3-(2-vinylthiazol-4-yl)-5,6-dihydro-[1,2,4]triazolo[4,3-a]pyrazin-7(8H)-yl)methanone], on human NK-3 receptor [1], half-maximal inhibition (IC50) required 20 nM. In addition, on human NK-3 receptor [2] (setting [3]), the Ki was 36 nM.

As to `Cc1nc(-c2nnc3n2CCN(C(=O)c2ccc(-c4ccccc4)cc2)[C@@H]3C)co1` [Compound 12, (R)-[1,1′-biphenyl]-4-yl(8-methyl-3-(2-methyloxazol-4-yl)-5,6-dihydro-[1,2,4]triazolo[4,3-a]pyrazin-7(8H)-yl)methanone], 58 nM corresponded to half-maximal inhibition at human NK-3 receptor [1] (IC50). Also, the Ki at human NK-3 receptor [2] (setting [3]) was 70 nM.

Turning to `CC(C)c1nc(-c2nnc3n2CCN(C(=O)c2ccc(-c4cccs4)cc2)[C@@H]3C)co1` [Compound 13, (R)-(3-(2-isopropyloxazol-4-yl)-8-methyl-5,6-dihydro-[1,2,4]triazolo[4,3-a]pyrazin-7(8H)-yl)(4-(thiophen-2-yl)phenyl)methanone], on human NK-3 receptor [1], it took 2 nM to reach half-maximal inhibition (IC50). Moreover, at human NK-3 receptor [2] (setting [3]), the Ki was determined as 3 nM.

The compound `CC(C)c1nc(-c2nnc3n2CCN(C(=O)c2ccc(-c4cccs4)cc2)C3)co1` [Compound 14, (3-(2-isopropyloxazol-4-yl)-5,6-dihydro-[1,2,4]triazolo[4,3-a]pyrazin-7(8H)-yl)(4-(thiophen-2-yl)phenyl)methanone] displayed an IC50 against human NK-3 receptor [1] of 47 nM. At human NK-3 receptor [2] (setting [3]), the Ki was 42 nM.

The compound `C[C@@H]1c2nnc(-c3coc(C4CC4)n3)n2CCN1C(=O)c1ccc(-c2cccs2)cc1` [Compound 15, (R)-(3-(2-cyclopropyloxazol-4-yl)-8-methyl-5,6-dihydro-[1,2,4]triazolo[4,3-a]pyrazin-7(8H)-yl)(4-(thiophen-2-yl)phenyl)methanone] displayed an IC50 on human NK-3 receptor [1] of 9 nM. In addition, at human NK-3 receptor [2] (setting [3]), the Ki worked out at 11 nM.

In the case of `Cc1nc(-c2nnc3n2CCN(C(=O)c2ccc(-c4cccs4)cc2)[C@@H]3C)c(C)s1` [Compound 16, (R)-(3-(2,5-dimethylthiazol-4-yl)-8-methyl-5,6-dihydro-[1,2,4]triazolo[4,3-a]pyrazin-7(8H)-yl)(4-(thiophen-2-yl)phenyl)methanone], the IC50 at human NK-3 receptor [1] amounted to 30 nM. Besides, the inhibition constant Ki at human NK-3 receptor [2] (setting [3]) was found to be 32 nM.

For the compound `C[C@@H]1c2nnc(-c3csc(N(C)C)n3)n2CCN1C(=O)c1ccc(-c2cccs2)cc1` [Compound 17, (R)-(3-(2-(dimethylamino)thiazol-4-yl)-8-methyl-5,6-dihydro-[1,2,4]triazolo[4,3-a]pyrazin-7(8H)-yl)(4-(thiophen-2-yl)phenyl)methanone], the IC50 on human NK-3 receptor [1] came to 7 nM. The Ki at human NK-3 receptor [2] (setting [3]) was 7 nM; on human NK-3 receptor [2] (setting [4]), 7 nM; at human NK1 receptor (setting [5]), 6060 nM; at human NK2 receptor (setting [6]) it was 9950 nM.

The compound `CC(C)c1nc(-c2nnc3n2CCN(C(=O)c2ccc(-c4cccs4)cc2)C3)cs1` [Compound 18, (3-(2-isopropylthiazol-4-yl)-5,6-dihydro-[1,2,4]triazolo[4,3-a]pyrazin-7(8H)-yl)(4-(thiophen-2-yl)phenyl)methanone] returned an IC50 against human NK-3 receptor [1] of 10 nM. On human NK-3 receptor [2] (setting [3]), the inhibition constant (Ki) worked out at 20 nM.

`Cc1csc(-c2nnc3n2CCN(C(=O)c2ccc(-c4ccccc4)cc2)[C@@H]3C)n1` [Compound 20, (R)-[1,1′-biphenyl]-4-yl(8-methyl-3-(4-methylthiazol-2-yl)-5,6-dihydro-[1,2,4]triazolo[4,3-a]pyrazin-7(8H)-yl)methanone]: on human NK-3 receptor [1], the IC50 came out at 11 nM. Also, the Ki on human NK-3 receptor [2] (setting [3]) worked out at 12 nM.

In the case of `Cc1csc(-c2nnc3n2CCN(C(=O)c2ccc(-c4ccccc4)cc2)C3)n1` [Compound 21, [1,1′-biphenyl]-4-yl(3-(4-methylthiazol-2-yl)-5,6-dihydro-[1,2,4]triazolo[4,3-a]pyrazin-7(8H)-yl)methanone], the 50% inhibitory concentration (IC50) at human NK-3 receptor [1] was found to be 33 nM. Further, the Ki on human NK-3 receptor [2] (setting [3]) was found to be 38 nM.

Consider `Cc1noc(-c2nnc3n2CCN(C(=O)c2ccc(-c4cccs4)cc2)[C@@H]3C)n1` [Compound 23, (R)-(8-methyl-3-(3-methyl-1,2,4-oxadiazol-5-yl)-5,6-dihydro-[1,2,4]triazolo[4,3-a]pyrazin-7(8H)-yl)(4-(thiophen-2-yl)phenyl)methanone], for which the inhibition – broadly, the drop in the measured response relative to a control, in per cent – at 10 µM is under 10% on human NK1 receptor (read-out: NK1 % inhibition at 10 μM, for the racemate) and under 25% on human NK2 receptor (read-out: NK2 % inhibition at 10 μM, for the racemate). Besides, the Ki on human NK1 receptor (setting [5]) and at human NK2 receptor (setting [6]) was over 10000 nM each time.

`CC(C)c1nsc(-c2nnc3n2CCN(C(=O)c2ccc(-c4cccs4)cc2)[C@@H]3C)n1` [Compound 25, (R)-(3-(3-isopropyl-1,2,4-thiadiazol-5-yl)-8-methyl-5,6-dihydro-[1,2,4]triazolo[4,3-a]pyrazin-7(8H)-yl)(4-(thiophen-2-yl)phenyl)methanone] returned an IC50 on human NK-3 receptor [1] of 3 nM. Besides, on human NK-3 receptor [2] (setting [3]), the Ki was 3 nM.

As to `Cc1coc(-c2nnc3n2CCN(C(=O)c2ccc(-c4cccs4)cc2)[C@@H]3C)n1` [Compound 26, (R)-(8-methyl-3-(4-methyloxazol-2-yl)-5,6-dihydro-[1,2,4]triazolo[4,3-a]pyrazin-7(8H)-yl)(4-(thiophen-2-yl)phenyl)methanone], half-maximal inhibition on human NK-3 receptor [1] (IC50) required 12 nM.

For the compound `Cc1coc(-c2nnc3n2CCN(C(=O)c2ccc(-c4ccccc4)cc2)[C@@H]3C)n1` [Compound 27, (R)-[1,1′-biphenyl]-4-yl(8-methyl-3-(4-methyloxazol-2-yl)-5,6-dihydro-[1,2,4]triazolo[4,3-a]pyrazin-7(8H)-yl)methanone], the IC50 at human NK-3 receptor [1] was 51 nM. Also, at human NK-3 receptor [2] (setting [3]), the Ki worked out at 51 nM.

For the compound `Cc1cc(-c2nnc3n2CCN(C(=O)c2ccc(-c4cccs4)cc2)[C@@H]3C)n(C)n1` [Compound 28, (R)-(3-(1,3-dimethyl-1H-pyrazol-5-yl)-8-methyl-5,6-dihydro-[1,2,4]triazolo[4,3-a]pyrazin-7(8H)-yl)(4-(thiophen-2-yl)phenyl)methanone], at human NK-3 receptor [1], the IC50 turned out to be 37 nM. Moreover, at human NK-3 receptor [2] (setting [3]), the inhibitory constant (Ki) turned out to be 68 nM.

On to `Cc1cccc(-c2nnc3n2CCN(C(=O)c2ccc(-c4ccccc4)cc2)[C@@H]3C)n1` [Compound 29, (R)-[1,1′-biphenyl]-4-yl(8-methyl-3-(6-methylpyridin-2-yl)-5,6-dihydro-[1,2,4]triazolo[4,3-a]pyrazin-7(8H)-yl)methanone], for which, at human NK-3 receptor [1], the IC50 was 18 nM. Moreover, the Ki on human NK-3 receptor [2] (setting [3]) amounted to 23 nM.

On to `Cc1cccc(-c2nnc3n2CCN(C(=O)c2ccc(-c4cccs4)cc2)[C@@H]3C)n1` [Compound 30, (R)-(8-methyl-3-(6-methylpyridin-2-yl)-5,6-dihydro-[1,2,4]triazolo[4,3-a]pyrazin-7(8H)-yl)(4-(thiophen-2-yl)phenyl)methanone], for which the IC50 against human NK-3 receptor [1] stood at 11 nM. Also, the Ki stood at 10 nM at human NK-3 receptor [2] (setting [3]); 10 nM at human NK-3 receptor [2] (setting [4]); 17200 nM at human NK1 receptor (read-out: NK1 Ki, CHO membranes, 2 nM [3H] substance P); 5930 nM on human NK2 receptor (read-out: NK2 Ki, CHO membranes, 0.1 nM [125I]-Neurokinin A).
